Assays:
Details in all cases: exposure time: 72 h
E31 [1] = patient-derived glioblastoma stem cells of proneural subtype; assay: surviving fraction (nuclei count normalised to DMSO); higher = more cells surviving (less toxic)
E34 [2] = patient-derived glioblastoma stem cells of proneural subtype; assay: as above
FT3469 [3] = normal neural stem cell line; assay: as above
E13 [4] = patient-derived glioblastoma stem cells of classical subtype; assay: as above
E21 [5] = patient-derived glioblastoma stem cells of mesenchymal subtype; assay: as above
E28 [6] = patient-derived glioblastoma stem cells of classical subtype; assay: as above
E57 [7] = patient-derived glioblastoma stem cells of mesenchymal subtype; assay: as above
E31 [8] = assay: phenotypic distance (Euclidean, principal components) from DMSO controls (arbitrary units); higher = stronger morphological change
E34 [9] = assay: as above
FT3469 [10] = assay: as above
E13 [11] = assay: as above
E21 [12] = assay: as above
E28 [13] = assay: as above
E57 [14] = assay: as above
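Throughout, for phenotypic distance (Euclidean, principal components) from DMSO controls: cell Painting imaging in 384-well plates, CellProfiler features reduced to at least 20 principal components, Euclidean distance versus same-plate DMSO vehicle wells (0.1% v/v), median over six images per well.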
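Throughout, for surviving fraction (nuclei count normalised to DMSO): nuclei counted by high-content imaging of Hoechst-stained cells in laminin-coated 384-well plates, relative to 0.1% DMSO vehicle wells, with staurosporine as cell-death control.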

CN1C(=O)OC(C)(C)C1=O [Trimethadione]
Details | phenotypic distance | surviving fraction
E13 [4], 4.1 nM | – | 0.872
E13 [4], 12.3 nM | – | 1.05
E13 [4], 37 nM | – | 0.904
E13 [4], 111.1 nM | – | 0.943
E13 [4], 333.3 nM | – | 0.94
E13 [4], 1000 nM | – | 1.07
E13 [4], 3000 nM | – | 0.9
E13 [11], 4.1 nM | 0.619 | –
E13 [11], 12.3 nM | 0.485 | –
E13 [11], 37 nM | 0.498 | –
E13 [11], 111.1 nM | 0.332 | –
E13 [11], 333.3 nM | 0.419 | –
E13 [11], 1000 nM | 0.395 | –
E13 [11], 3000 nM | 0.509 | –
E21 [5], 4.1 nM | – | 0.949
E21 [5], 12.3 nM | – | 1.02
E21 [5], 37 nM | – | 0.937
E21 [5], 111.1 nM | – | 1.05
E21 [5], 333.3 nM | – | 1.01
E21 [5], 1000 nM | – | 0.949
E21 [5], 3000 nM | – | 1.03
E21 [12], 4.1 nM | 0.779 | –
E21 [12], 12.3 nM | 0.495 | –
E21 [12], 37 nM | 0.506 | –
E21 [12], 111.1 nM | 0.324 | –
E21 [12], 333.3 nM | 0.36 | –
E21 [12], 1000 nM | 0.29 | –
E21 [12], 3000 nM | 0.461 | –
E28 [6], 4.1 nM | – | 0.994
E28 [6], 12.3 nM | – | 1.14
E28 [6], 37 nM | – | 0.959
E28 [6], 111.1 nM | – | 1.03
E28 [6], 333.3 nM | – | 1
E28 [6], 1000 nM | – | 1
E28 [6], 3000 nM | – | 0.903
E28 [13], 4.1 nM | 0.624 | –
E28 [13], 12.3 nM | 0.657 | –
E28 [13], 37 nM | 0.665 | –
E28 [13], 111.1 nM | 0.367 | –
E28 [13], 333.3 nM | 0.471 | –
E28 [13], 1000 nM | 0.385 | –
E28 [13], 3000 nM | 0.844 | –
E31 [1], 4.1 nM | – | 0.999
E31 [1], 12.3 nM | – | 1.03
E31 [1], 37 nM | – | 0.936
E31 [1], 111.1 nM | – | 1.15
E31 [1], 333.3 nM | – | 1.04
E31 [1], 1000 nM | – | 1.01
E31 [1], 3000 nM | – | 0.759
E31 [8], 4.1 nM | 0.578 | –
E31 [8], 12.3 nM | 0.705 | –
E31 [8], 37 nM | 0.678 | –
E31 [8], 111.1 nM | 0.582 | –
E31 [8], 333.3 nM | 0.402 | –
E31 [8], 1000 nM | 0.343 | –
E31 [8], 3000 nM | 0.599 | –
E34 [2], 4.1 nM | – | 1.12
E34 [2], 12.3 nM | – | 1.04
E34 [2], 37 nM | – | 1.04
E34 [2], 111.1 nM | – | 0.867
E34 [2], 333.3 nM | – | 0.972
E34 [2], 1000 nM | – | 0.961
E34 [2], 3000 nM | – | 0.86
E34 [9], 4.1 nM | 0.536 | –
E34 [9], 12.3 nM | 0.379 | –
E34 [9], 37 nM | 0.464 | –
E34 [9], 111.1 nM | 1.03 | –
E34 [9], 333.3 nM | 0.604 | –
E34 [9], 1000 nM | 0.565 | –
E34 [9], 3000 nM | 0.885 | –
E57 [7], 4.1 nM | – | 1.11
E57 [7], 12.3 nM | – | 0.909
E57 [7], 37 nM | – | 1.04
E57 [7], 111.1 nM | – | 1.04
E57 [7], 333.3 nM | – | 1
E57 [7], 1000 nM | – | 0.96
E57 [7], 3000 nM | – | 0.885
E57 [14], 4.1 nM | 0.62 | –
E57 [14], 12.3 nM | 0.587 | –
E57 [14], 37 nM | 0.572 | –
E57 [14], 111.1 nM | 0.439 | –
E57 [14], 333.3 nM | 0.455 | –
E57 [14], 1000 nM | 1.11 | –
E57 [14], 3000 nM | 0.844 | –
FT3469 [3], 4.1 nM | – | 1.05
FT3469 [3], 12.3 nM | – | 0.973
FT3469 [3], 37 nM | – | 0.987
FT3469 [3], 111.1 nM | – | 1.03
FT3469 [3], 333.3 nM | – | 0.983
FT3469 [3], 1000 nM | – | 1.03
FT3469 [3], 3000 nM | – | 0.855
FT3469 [10], 4.1 nM | 0.493 | –
FT3469 [10], 12.3 nM | 0.946 | –
FT3469 [10], 37 nM | 0.598 | –
FT3469 [10], 111.1 nM | 0.319 | –
FT3469 [10], 333.3 nM | 0.852 | –
FT3469 [10], 1000 nM | 0.673 | –
FT3469 [10], 3000 nM | 0.994 | –
